What was measured:
[1] = molecular target: hOX1R (orexin-1 receptor) (Homo sapiens, UniProt O43613); test: FLIPR Ca2+ flux assay, hOX1R; assay type: cell-based; conditions: CHO cells expressing the orexin-1 receptor (head: hOX1R; method: rat); agonist 70 pM Ala-6,12 orexin-A
human orexin-2 receptor = human orexin-2 receptor (Homo sapiens (Human), UniProt O43614); test: FLIPR Ca2+ flux assay, hOX2R; assay type: cell-based; conditions: CHO cells expressing the human orexin-2 receptor; agonist 70 pM Ala-6,12 orexin-A
Procedure: The utility of the compounds in accordance with the present invention as orexin receptor OX1R and/or OX2R antagonists may be readily determined without undue experimentation by methodology well known in the art, including the “FLIPR Ca^2+ Flux Assay” (Okumura et al., Biochem. Biophys. Res. Comm. 280:976-981, 2001). In a typical experiment the OX1 and OX2 receptor antagonistic activity of the compounds of the present invention was determined in accordance with the following experimental method. For intracellular calcium measurements, Chinese hamster ovary (CHO) cells expressing the rat orexin-1 receptor or the human orexin-2 receptor, are grown in Iscove's modified DMEM containing 2 mM L-glutamine, […], 1% hypoxanthine-thymidine supplement, 100 U/ml penicillin, 100 μg/ml streptomycin and 10% heat-inactivated fetal calf serum (FCS). The cells are seeded at 20,000 cells/well into Becton-Dickinson black 384-well clear bottom sterile plates coated with poly-D-lysine. All reagents were from GIBCO-Invitrogen Corp. The seeded plates are incubated overnight at 37° C. and 5% CO2. Ala-6,12 human orexin-A as the agonist is prepared as a 1 mM stock solution in 1% bovine serum albumin (BSA) and diluted in assay buffer (HBSS containing 20 mM HEPES, 0.1% BSA and 2.5 mM probenecid, pH7.4) for use in the assay at a final concentration of 70pM. Test compounds are prepared as 10 mM stock solution in DMSO, then diluted in 384-well plates, first in DMSO, then assay buffer. On the day of the assay, cells are washed 3 times with 100 μl assay buffer and then incubated for 60 min (37° C., 5% CO2) in 60 μl assay buffer containing 1 μM Fluo-4AM ester, 0.02% pluronic acid, and 1% BSA. The dye loading solution is then aspirated and cells are washed 3 times with 100 μl assay buffer. 30 μl of that same buffer is left in each well. Within the Fluorescent Imaging Plate Reader (FLIPR, Molecular Devices), test compounds are added to the plate in a volume of 25 μl, incubated for 5 min and finally 25 μl of agonist is added. Fluorescence is measured for each well at 1 second intervals for 5 minutes and the height of each fluorescence peak is compared to the height of the fluorescence peak induced by 70 pM Ala-6,12 orexin-A with buffer in place of antagonist. For each antagonist, IC50 value (the concentration of compound needed to inhibit 50% of the agonist response) is determined. Alternatively, compound potency can be assessed by a radioligand binding assay (described in Bergman et. al. Bioorg. Med. Chem. Lett. 2008, 18, 1425-1430) in which the inhibition constant (Ki) is determined in membranes prepared from CHO cells expressing either the OX1 or OX2 receptor. The intrinsic orexin receptor antagonist activity of a compound which may be used in the present invention may be determined by these assays.

Sequence of human orexin-2 receptor (O43614 whole entry): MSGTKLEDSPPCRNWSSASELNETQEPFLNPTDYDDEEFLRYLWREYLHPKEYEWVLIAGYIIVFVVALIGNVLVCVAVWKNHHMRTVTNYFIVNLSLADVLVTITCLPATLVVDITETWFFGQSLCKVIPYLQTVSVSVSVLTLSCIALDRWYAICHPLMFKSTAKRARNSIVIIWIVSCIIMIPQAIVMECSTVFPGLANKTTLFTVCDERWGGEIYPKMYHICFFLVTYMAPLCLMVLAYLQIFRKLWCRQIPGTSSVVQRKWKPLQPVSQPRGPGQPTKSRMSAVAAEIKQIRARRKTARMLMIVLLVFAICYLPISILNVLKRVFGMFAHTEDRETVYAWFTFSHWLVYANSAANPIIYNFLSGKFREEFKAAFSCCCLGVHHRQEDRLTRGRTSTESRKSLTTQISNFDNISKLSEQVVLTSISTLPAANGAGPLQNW

With CCOc1ccnc(N[C@@H]2C[C@@H](C)N(C(=O)c3ccccc3-n3nccn3)C2)c1C(=O)OC [Example 34, Methyl 2-(((3R,5R)-1-(2-(2H-1,2,3-triazol-2-yl)benzoyl)-5-methylpyrrolidin-3-yl)amino)-4-ethoxynicotinate] the IC50 [1] was greater than 10 µM and the IC50 (human orexin-2 receptor) was 66.2 nM.
With C[C@@H]1C[C@@H](N(C)c2cc(Br)ccn2)CN1C(=O)c1ccccc1-n1nccn1 [Example 35, (2-(2H-1,2,3-Triazol-2-yl)phenyl)((2R,4R)-4-((4-bromopyridin-2-yl)(methyl)amino)-2-methylpyrrolidin-1-yl)methanone] the IC50 [1] was 2.25 µM and the IC50 (human orexin-2 receptor) was 136 nM.
In the case of Cc1c(C#N)ccnc1N[C@@H]1C[C@@H](C)N(C(=O)c2ccccc2-n2nccn2)C1 [Example 36, 2-(((3R,5R)-1-(2-(2H-1,2,3-Triazol-2-yl)benzoyl)-5-methylpyrrolidin-3-yl)amino)-3-methylisonicotinonitrile], the IC50 [1] is reported as 3.35 µM and the IC50 (human orexin-2 receptor) is reported as 23.6 nM.
Cc1c(C#N)ccnc1N(C)[C@@H]1C[C@@H](C)N(C(=O)c2ccccc2-n2nccn2)C1 [Example 37, 2-(((3R,5R)-1-(2-(2H-1,2,3-Triazol-2-yl)benzoyl)-5-methylpyrrolidin-3-yl)(methyl)amino)-3-methylisonicotinonitrile] gave an IC50 [1] greater than 10 µM and an IC50 (human orexin-2 receptor) of 3210 nM.
Molecule COC(=O)c1c(C#N)ccnc1N[C@@H]1C[C@@H](C)N(C(=O)c2ccccc2-n2nccn2)C1 [Example 38, Methyl 2-(((3R,5R)-1-(2-(2H-1,2,3-triazol-2-yl)benzoyl)-5-methylpyrrolidin-3-yl)amino)-4-cyanonicotinate] has an IC50 [1] of 1.55 µM and an IC50 (human orexin-2 receptor) of 14.6 nM.
Work on COc1c(C#N)ccnc1N[C@@H]1C[C@@H](C)N(C(=O)c2ccccc2-n2nccn2)C1 [Example 39, 2-(((3R,5R)-1-(2-(2H-1,2,3-Triazol-2-yl)benzoyl)-5-methylpyrrolidin-3-yl)amino)-3-methoxyisonicotinonitrile] yielded an IC50 [1] greater than 10 µM and an IC50 (human orexin-2 receptor) of 40.8 nM.
Molecule COc1cccnc1N[C@@H]1C[C@@H](C)N(C(=O)c2ccccc2-c2noc(C)n2)C1 [Example 42, ((2R,4R)-4-((3-Methoxypyridin-2-yl)amino)-2-methylpyrrolidin-1-yl)(2-(5-methyl-1,2,4-oxadiazol-3-yl)phenyl)methanone] has an IC50 [1] of 10 µM and an IC50 (human orexin-2 receptor) of 500 nM.
Work on COc1cccnc1N[C@@H]1C[C@@H](C)N(C(=O)c2nccnc2-n2cccn2)C1 [Example 43, (3-(1H-Pyrazol-1-yl)pyrazin-2-yl)((2R,4R)-4-((3-methoxypyridin-2-yl)amino)-2-methylpyrrolidin-1-yl)methanone] yielded an IC50 [1] of 10 µM and an IC50 (human orexin-2 receptor) of 1500 nM.
Molecule COc1cccnc1N[C@@H]1C[C@@H](C)N(C(=O)c2nccnc2-c2ccccn2)C1 [Example 44, ((2R,4R)-4-((3-Methoxypyridin-2-yl)amino)-2-methylpyrrolidin-1-yl)(3-(pyridin-2-yl)pyrazin-2-yl)methanone] has an IC50 [1] of 10 µM and an IC50 (human orexin-2 receptor) of 2370 nM.
